Assay results from patent US20250353855A1, “HETEROCYCLIC AND HETEROARYL COMPOUNDS FOR TREATING HUNTINGTON'S DISEASE” (PTC THERAPEUTICS, INC., priority 2022, published 2025).

System: Endogenous Huntingtin Protein
Experiment: Endogenous Huntingtin Protein Assay (ELISA-based MSD electrochemiluminescence)
Type: cell-based
Settings: MSD plates coated with MW1 (expanded polyglutamine) or MAB2166 capture antibody; lysates
Description: Compounds of Formula (T) were tested using the Meso Scale Discovery (MSD) Assay provided in International Application No. PCT/US2016/066042, filed on Dec. 11, 2016 and claiming priority to U.S. Provisional Application 62/265,652 filed on Dec. 10, 2015, the entire contents of which are incorporated herein by reference.
The Endogenous Huntingtin Protein assay used in Example 1 was developed using the ELISA-based MSD electrochemiluminescence assay platform.
Meso Scale Discovery (MSD) 96-well or 384-well plates were coated overnight at 4° C. with MW1 (expanded polyglutamine) or MAB2166 monoclonal antibody (for capture) at a concentration of 1 μg/mL in PBS (30 μL per well). Plates were then washed three times with 300 μL wash buffer (0.05% Tween-20 in PBS) and blocked (100 μL blocking buffer; 5% BSA in PBS) for 4-5 hours at room temperature with rotational shaking and then washed three times with wash buffer.
Samples (25 μL) were transferred to the antibody-coated MSD plate and incubated overnight at 4° C. After removal of the lysates, the plate was washed three times with wash buffer, and 25 μL of #5656S (Cell signaling; rabbit monoclonal) secondary antibody (diluted to 0.25 μg/mL in 0.05% Tween-20 in blocking buffer) was added to each well and incubated with shaking for 1 Hour at room temperature. Following incubation with the secondary antibody, the wells were rinsed with wash buffer after which 25 μL of goat anti-rabbit SULFO TAG secondary detection antibody (required aspect of the MSD system) (diluted to 0.25 μg/mL in 0.05% Tween-20 in blocking buffer) was added to each well and incubated with shaking for 1 hour at room temperature. After rinsing three times with wash buffer, 150 μL of read buffer T with surfactant (MSD) were added to each empty well, and the plate was imaged on a SI 6000 imager (MSD) according to manufacturers' instructions provided for 96- or 384-well plates.

| Compound | IC50 [µM] |
| --- | --- |
| COc1cnc2cc(-c3cc4c(nn3)N([C@H]3CC(C)(C)NC(C)(C)[C@H]3F)CC4)c(O)cc2n1 [Cpd 84, 7-{7-[(3S,4S)-3-fluoro-2,2,6,6-tetramethylpiperidin-4-yl]-6,7-dihydro-5H-pyrrolo[2,3-c]pyridazin-3-yl}-3-methoxyquinoxalin-6-ol] | < 0.1 |

Same assay, conditions: MSD plates coated with MW1 (expanded polyglutamine) or MAB2166 capture antibody; lysates; read-out: IC50

| Compound | IC50 [µM] |
| --- | --- |
| Cc1nc2cc(O)c(-c3cc4ncn([C@H]5CC(C)(C)NC6(CC6)C5)c4nn3)cc2s1 [Cpd 11, 6-{7-[(7S)-5,5-dimethyl-4-azaspiro[2.5]octan-7-yl]-7H-imidazo[4,5-c]pyridazin-3-yl}-2-methyl-1,3-benzothiazol-5-ol] | < 0.1 |
| Cc1ccc2cc(O)c(-c3cc4ccn([C@H]5CC(C)(C)NC(C)(C)[C@H]5F)c4nn3)cc2n1 [Cpd 31, 7-{7-[(3S,4S)-3-fluoro-2,2,6,6-tetramethylpiperidin-4-yl]-7H-pyrrolo[2,3-c]pyridazin-3-yl}-2-methylquinolin-6-ol] | < 0.1 |
| CC1(C)C[C@H](n2ccc3cc(-c4cc5oc(=O)[nH]c5cc4O)nnc32)[C@H](F)C(C)(C)N1 [Cpd 36, 6-{7-[(3S,4S)-3-fluoro-2,2,6,6-tetramethylpiperidin-4-yl]-7H-pyrrolo[2,3-c]pyridazin-3-yl}-5-hydroxy-1,3-benzoxazol-2(3H)-one] | < 0.1 |
| Cc1nc2cc(O)c(-c3cc4ncn([C@H]5C[C@@H]6CC[C@@H](N6)[C@H]5F)c4nn3)cc2s1 (single isomer, unassigned) [Cpd 9, 6-{7-[(1R,2R,3S,5S)-2-fluoro-8-azabicyclo[3.2.1]octan-3-yl]-7H-imidazo[4,5-c]pyridazin-3-yl}-2-methyl-1,3-benzothiazol-5-ol or 6-{7-[(1S,2S,3R,5R)-2-fluoro-8-azabicyclo[3.2.1]octan-3-yl]-7H-imidazo[4,5-c]pyridazin-3-yl}-2-methyl-1,3-benzothiazol-5-ol] | < 0.1 |
| Cc1cnc2cc(-c3cc4ccn([C@H]5CC(C)(C)NC(C)(C)[C@H]5F)c4nn3)c(O)cc2n1 [Cpd 5, 7-{7-[(3S,4S)-3-fluoro-2,2,6,6-tetramethylpiperidin-4-yl]-7H-pyrrolo[2,3-c]pyridazin-3-yl}-3-methylquinoxalin-6-ol] | < 0.1 |
| CC1(C)CC(n2nnc3cc(-c4cc5c(cc4O)C(=O)CC5)nnc32)CC(C)(C)N1 [Cpd 1, 6-hydroxy-5-[3-(2,2,6,6-tetramethylpiperidin-4-yl)-3H-[1,2,3]triazolo[4,5-c]pyridazin-6-yl]-2,3-dihydro-1H-inden-1-one] | 1 to 3 |
| Cn1ccc(=O)c2cc(-c3cc4ccn([C@H]5CC(C)(C)NC(C)(C)[C@H]5F)c4nn3)c(O)cc21 [Cpd 18, 6-{7-[(3S,4S)-3-fluoro-2,2,6,6-tetramethylpiperidin-4-yl]-7H-pyrrolo[2,3-c]pyridazin-3-yl}-7-hydroxy-1-methylquinolin-4(1H)-one] | < 0.1 |
| CC1(C)C[C@H](n2ccc3cc(-c4cc5cc(F)cnc5cc4O)nnc32)[C@H](F)C(C)(C)N1 [Cpd 94, 3-fluoro-6-{7-[(3S,4S)-3-fluoro-2,2,6,6-tetramethylpiperidin-4-yl]-7H-pyrrolo[2,3-c]pyridazin-3-yl}quinolin-7-ol] | < 0.1 |
| CC1(C)C[C@H](n2ccc3cc(-c4cc5cccnc5cc4O)nnc32)[C@H](F)C(C)(C)N1 [Cpd 16, 6-{7-[(3S,4S)-3-fluoro-2,2,6,6-tetramethylpiperidin-4-yl]-7H-pyrrolo[2,3-c]pyridazin-3-yl}quinolin-7-ol] | < 0.1 |
| Cc1nc2cc(-c3cc4ccn([C@H]5CC(C)(C)NC(C)(C)[C@H]5F)c4nn3)c(O)cc2o1 [Cpd 6, 5-{7-[(3S,4S)-3-fluoro-2,2,6,6-tetramethylpiperidin-4-yl]-7H-pyrrolo[2,3-c]pyridazin-3-yl}-2-methyl-1,3-benzoxazol-6-ol] | < 0.1 |
| CC1(C)C[C@H](n2ccc3cc(-c4cc5ccncc5cc4O)nnc32)[C@H](F)C(C)(C)N1 [Cpd 29, 6-{7-[(3S,4S)-3-fluoro-2,2,6,6-tetramethylpiperidin-4-yl]-7H-pyrrolo[2,3-c]pyridazin-3-yl}isoquinolin-7-ol] | < 0.1 |

Now from value to molecule:

| IC50 [µM] | Compound |
| --- | --- |
| < 0.1 | Cc1nc2cc(O)c(-c3cc4c(nn3)N([C@H]3CCNC5(CC5)C3)CC4)cc2o1 [Cpd 43, 6-{7-[(7S)-4-azaspiro[2.5]octan-7-yl]-6,7-dihydro-5H-pyrrolo[2,3-c]pyridazin-3-yl}-2-methyl-1,3-benzoxazol-5-ol] |
| < 0.1 | CC1(C)C[C@H](N2CCc3cc(-c4cc5cc(F)cnc5cc4O)nnc32)[C@H](F)C(C)(C)N1 [Cpd 93, 3-fluoro-6-{7-[(3S,4S)-3-fluoro-2,2,6,6-tetramethylpiperidin-4-yl]-6,7-dihydro-5H-pyrrolo[2,3-c]pyridazin-3-yl}quinolin-7-ol] |
| < 0.1 | CC1(C)C[C@H](N2CCc3cc(-c4cc5nsnc5cc4O)nnc32)[C@H](F)C(C)(C)N1 [Cpd 85, 6-{7-[(3S,4S)-3-fluoro-2,2,6,6-tetramethylpiperidin-4-yl]-6,7-dihydro-5H-pyrrolo[2,3-c]pyridazin-3-yl}-2,1,3-benzothiadiazol-5-ol] |
| < 0.1 | Cc1cc(=O)oc2cc(O)c(-c3cc4c(nn3)N([C@@H]3C[C@H]5CC[C@H](N5)[C@@H]3F)CC4)cc12 (single isomer, unassigned) [Cpd 79, 6-{7-[(1S,2S,3R,5R)-2-fluoro-8-azabicyclo[3.2.1]octan-3-yl]-6,7-dihydro-5H-pyrrolo[2,3-c]pyridazin-3-yl}-7-hydroxy-4-methyl-2H-1-benzopyran-2-one or 6-{7-[(1R,2R,3S,5S)-2-fluoro-8-azabicyclo[3.2.1]octan-3-yl]-6,7-dihydro-5H-pyrrolo[2,3-c]pyridazin-3-yl}-7-hydroxy-4-methyl-2H-1-benzopyran-2-one] |
| < 0.1 | Cc1cnc2cc(-c3cc4c(nn3)N([C@@H]3C[C@H]5CC[C@H](N5)[C@@H]3F)CC4)c(O)cc2n1 (single isomer, unassigned) [Cpd 91, 7-{7-[(1S,2S,3R,5R)-2-fluoro-8-azabicyclo[3.2.1]octan-3-yl]-6,7-dihydro-5H-pyrrolo[2,3-c]pyridazin-3-yl}-3-methylquinoxalin-6-ol or 7-{7-[(1R,2R,3S,5S)-2-fluoro-8-azabicyclo[3.2.1]octan-3-yl]-6,7-dihydro-5H-pyrrolo[2,3-c]pyridazin-3-yl}-3-methylquinoxalin-6-ol] |
| < 0.1 | CC1(C)C[C@H](N2CCc3cc(-c4cc5ccncc5cc4O)nnc32)[C@H](F)C(C)(C)N1 [Cpd 70, 6-{7-[(3S,4S)-3-fluoro-2,2,6,6-tetramethylpiperidin-4-yl]-6,7-dihydro-5H-pyrrolo[2,3-c]pyridazin-3-yl}isoquinolin-7-ol] |
| < 0.1 | CC1(C)C[C@H](N2CCc3cc(-c4cc5oc(=O)[nH]c5cc4O)nnc32)[C@H](F)C(C)(C)N1 [Cpd 86, 6-{7-[(3S,4S)-3-fluoro-2,2,6,6-tetramethylpiperidin-4-yl]-6,7-dihydro-5H-pyrrolo[2,3-c]pyridazin-3-yl}-5-hydroxy-1,3-benzoxazol-2(3H)-one] |
| < 0.1 | Cc1cnc2cc(O)c(-c3cc4c(nn3)N([C@H]3CC(C)(C)NC(C)(C)[C@H]3F)CC4)cc2c1 [Cpd 81, 6-{7-[(3S,4S)-3-fluoro-2,2,6,6-tetramethylpiperidin-4-yl]-6,7-dihydro-5H-pyrrolo[2,3-c]pyridazin-3-yl}-3-methylquinolin-7-ol] |
| < 0.1 | CC1(C)C[C@H](N2CCc3cc(-c4cc5ncc(F)cc5cc4O)nnc32)[C@H](F)C(C)(C)N1 [Cpd 90, 3-fluoro-7-{7-[(3S,4S)-3-fluoro-2,2,6,6-tetramethylpiperidin-4-yl]-6,7-dihydro-5H-pyrrolo[2,3-c]pyridazin-3-yl}quinolin-6-ol] |
| < 0.1 | Cc1nc2cc(-c3cc4c(nn3)N(C3CCNC5(CCC5)[C@@H]3F)CC4)c(O)cc2s1 (single isomer, unassigned) [Cpd 74, 5-{7-[(8R,9R)-9-fluoro-5-azaspiro[3.5]nonan-8-yl]-6,7-dihydro-5H-pyrrolo[2,3-c]pyridazin-3-yl}-2-methyl-1,3-benzothiazol-6-ol or 5-{7-[(8S,9S)-9-fluoro-5-azaspiro[3.5]nonan-8-yl]-6,7-dihydro-5H-pyrrolo[2,3-c]pyridazin-3-yl}-2-methyl-1,3-benzothiazol-6-ol] |
| < 0.1 | Cc1nc2cc(O)c(-c3cc4c(nn3)N([C@@H]3CCNC(C)(C)[C@@H]3F)CC4)cc2s1 (single isomer, unassigned) [Cpd 63, 6-{7-[(3R,4R)-3-fluoro-2,2-dimethylpiperidin-4-yl]-6,7-dihydro-5H-pyrrolo[2,3-c]pyridazin-3-yl}-2-methyl-1,3-benzothiazol-5-ol or 6-{7-[(3S,4S)-3-fluoro-2,2-dimethylpiperidin-4-yl]-6,7-dihydro-5H-pyrrolo[2,3-c]pyridazin-3-yl}-2-methyl-1,3-benzothiazol-5-ol] |
| < 0.1 | Cc1nc2cc(O)c(-c3cc4c(nn3)N([C@H]3CC(C)(C)NC(C)(C)[C@H]3F)CC4)cc2o1 [Cpd 44, 6-{7-[(3S,4S)-3-fluoro-2,2,6,6-tetramethylpiperidin-4-yl]-6,7-dihydro-5H-pyrrolo[2,3-c]pyridazin-3-yl}-2-methyl-1,3-benzoxazol-5-ol] |
